Laboratory results as given in PMC4536076, “Chemical Library Screening and Structure-Function Relationship Studies Identify Bisacodyl as a Potent and Selective Cytotoxic Agent Towards Quiescent Human Glioblastoma Tumor Stem-Like Cells” (PLoS ONE, 2015).
Counter-ions that a name gives are not always drawn. Like-named read-outs stand apart in the source and are kept apart here.

Experiments:
proliferating TG1 GSCs = conditions: primary screen, 50 μM, 24 h
Description: (§1) Proliferating or quiescent TG1 GSCs were seeded (30 000 and 40 000 viable cells/well, respectively) into 96-well opaque bottom plates (Greiner) with the Biomek FX robot (Beckman Coulter). Each compound from the Prestwick Library was then added (final concentration: 50 μM; 1% DMSO). Each molecule was tested once. Negative control wells (12/96 per assay plate) contained cells treated with 1% DMSO (final concentration) and positive control wells (4/96 per assay plate) contained cells treated with the fungal toxin ophiobolin A (Sigma Aldrich) at 50 μM with 1% DMSO. […] Luminescence in each well was measured with the Victor3 plate reader (PerkinElmer).
(§2) Relative ATP levels in each well were determined by calculating the percentage of luminescent signal in the well with respect to the average signal measured in negative control wells.
(§3) Primary screen hits were further tested in duplicate, at two concentrations (50 and 5 μM) on proliferating and quiescent TG1 GSCs. Cell plating and treatment with compounds were as for the primary screen. Hit selection/confirmation criteria for quiescent cells were as described above.

quiescent TG1 GSCs = test system: quiescent TG1 GSCs
Description: as §1, §2, §3

Molecule: CN(C)c1nc(N(C)C)nc(N(C)C)n1 [Altretamine]
- Activity on proliferating TG1 CSCs (hit compounds increasing ATP levels) (proliferating TG1 GSCs): yes

Molecule: CCCCCC[C@H]1C(=O)O[C@H](C)[C@H](NC(=O)c2cccc(NC=O)c2O)C(=O)O[C@@H](C)[C@@H]1OC(=O)CC(C)C [Antimycin A]
- Activity on quiescent TG1 GSCs (hit compounds reducing ATP levels) (quiescent TG1 GSCs; primary screen, 50 μM, 24 h): yes

Molecule: [H]/N=C(\N/C(=N/[H])NCCCCCCNC(=N)NC(=N)Nc1ccc(Cl)cc1)Nc1ccc(Cl)cc1 [Chlorhexidine]
- Activity on proliferating TG1 GSCs (hit compounds reducing ATP levels) (proliferating TG1 GSCs): yes

Molecule: Oc1c(I)cc(Cl)c2cccnc12 [Clioquinol]
- Activity on proliferating TG1 GSCs (hit compounds reducing ATP levels) (proliferating TG1 GSCs): yes

Molecule: CCCCCCC[N+](CC)(CC)CCCCc1ccc(Cl)cc1.Cc1ccc(S(=O)(=O)[O-])cc1 [Clofilium tosylate]
- Activity on quiescent TG1 GSCs (hit compounds reducing ATP levels) (quiescent TG1 GSCs; primary screen, 50 μM, 24 h): yes

Molecule: Nc1ncnc2c1ncn2[C@@H]1O[C@@H]2COP(=O)(O)O[C@H]2[C@H]1O [Cyclic AMP]
- Activity on proliferating TG1 CSCs (hit compounds increasing ATP levels) (proliferating TG1 GSCs): yes

Molecule: O=C(O)c1cc(-c2ccc(F)cc2F)ccc1O [Diflunisal]
- Activity on quiescent TG1 GSCs (hit compounds reducing ATP levels) (quiescent TG1 GSCs; primary screen, 50 μM, 24 h): yes

Molecule: C[C@]12CC[C@H](O)C[C@H]1CC[C@@H]1[C@@H]2CC[C@]2(C)[C@@H](C3=CC(=O)OC3)CC[C@]12O [Digitoxigenin]
- Activity on quiescent TG1 GSCs (hit compounds reducing ATP levels) (quiescent TG1 GSCs; primary screen, 50 μM, 24 h): yes

Molecule: C[C@H]1O[C@@H](O[C@H]2[C@@H](O)C[C@H](O[C@H]3[C@@H](O)C[C@H](O[C@H]4CC[C@@]5(C)[C@H](CC[C@@H]6[C@@H]5C[C@@H](O)[C@]5(C)[C@@H](C7=CC(=O)OC7)CC[C@]65O)C4)O[C@@H]3C)O[C@@H]2C)C[C@H](O)[C@@H]1O [Digoxin]
- Activity on proliferating TG1 GSCs (hit compounds reducing ATP levels) (proliferating TG1 GSCs): yes

Molecule: CN(C)[C@@H]1C(O)=C(C(N)=O)C(=O)[C@@]2(O)C(O)=C3C(=O)c4c(O)ccc(Cl)c4[C@@H](O)[C@H]3C[C@@H]12.Cl [Dimeclocycline hydrochloride]
- Activity on proliferating TG1 GSCs (hit compounds reducing ATP levels) (proliferating TG1 GSCs): yes

Molecule: COc1cc2nc(N3CCN(C(=O)C4COc5ccccc5O4)CC3)nc(N)c2cc1OC (centres unmarked) [Doxazosin mesylate]
- Activity on quiescent TG1 GSCs (hit compounds reducing ATP levels) (quiescent TG1 GSCs; primary screen, 50 μM, 24 h): yes

Molecule: O=c1c2ccccc2[se]n1-c1ccccc1 [Ebselen]
- Activity on quiescent TG1 GSCs (hit compounds reducing ATP levels) (quiescent TG1 GSCs; primary screen, 50 μM, 24 h): yes

Molecule: Clc1ccc(COC(Cn2ccnc2)c2ccc(Cl)cc2Cl)cc1 (centres unmarked) [Econazole nitrate]
- Activity on quiescent TG1 GSCs (hit compounds reducing ATP levels) (quiescent TG1 GSCs; primary screen, 50 μM, 24 h): yes

Molecule: CCOc1ccc(Cc2nccc3cc(OCC)c(OCC)cc23)cc1OCC [Ethaverine hydrochloride]
- Activity on quiescent TG1 GSCs (hit compounds reducing ATP levels) (quiescent TG1 GSCs; primary screen, 50 μM, 24 h): yes

Molecule: CCc1cc(C(N)=S)ccn1 [Ethionamide]
- Activity on quiescent TG1 CSCs (hit compounds increasing ATP levels) (quiescent TG1 GSCs; primary screen, 50 μM, 24 h): yes

Molecule: O=C(O)c1ccccc1Nc1cccc(C(F)(F)F)c1 [Flufenamic acid]
- Activity on quiescent TG1 GSCs (hit compounds reducing ATP levels) (quiescent TG1 GSCs; primary screen, 50 μM, 24 h): yes

Molecule: Fc1ccc(C(c2ccc(F)cc2)N2CCN(C/C=C/c3ccccc3)CC2)cc1 [Flunarizine dihydrochloride]
- Activity on quiescent TG1 GSCs (hit compounds reducing ATP levels) (quiescent TG1 GSCs; primary screen, 50 μM, 24 h): yes

Molecule: CC(C)C(=O)Nc1ccc([N+](=O)[O-])c(C(F)(F)F)c1 [Flutamide]
- Activity on quiescent TG1 GSCs (hit compounds reducing ATP levels) (quiescent TG1 GSCs; primary screen, 50 μM, 24 h): yes

Molecule: CCCCN(CCCC)CCC(O)c1cc2c(Cl)cc(Cl)cc2c2cc(C(F)(F)F)ccc12 (centres unmarked) [Halofantrine hydrochloride]
- Activity on quiescent TG1 GSCs (hit compounds reducing ATP levels) (quiescent TG1 GSCs; primary screen, 50 μM, 24 h): yes

Molecule: CC[C@H](c1ccc(O)cc1)[C@@H](CC)c1ccc(O)cc1 [Hexestrol]
- Activity on quiescent TG1 GSCs (hit compounds reducing ATP levels) (quiescent TG1 GSCs; primary screen, 50 μM, 24 h): yes

Molecule: c1ccc2c(c1)OCC(C1=NCCN1)O2 (centres unmarked) [Idazoxan hydrochloride]
- Activity on quiescent TG1 CSCs (hit compounds increasing ATP levels) (quiescent TG1 GSCs; primary screen, 50 μM, 24 h): yes

Molecule: CC(C(=O)O)c1ccc(N2Cc3ccccc3C2=O)cc1 (centres unmarked) [Indoprofen]
- Activity on proliferating TG1 GSCs (hit compounds reducing ATP levels) (proliferating TG1 GSCs): yes

Molecule: Cc1cccc(C)c1NC(=O)CN1CCN(CCCC(c2ccc(F)cc2)c2ccc(F)cc2)CC1 [Lidoflazine]
- Activity on proliferating TG1 GSCs (hit compounds reducing ATP levels) (proliferating TG1 GSCs): yes

Molecule: CCCCCN(CCCCC)C(=O)C(CCC(=O)[O-])NC(=O)c1ccc(Cl)c(Cl)c1.[Na+] (centres unmarked) [Lorglumide sodium salt]
- Activity on quiescent TG1 CSCs (hit compounds increasing ATP levels) (quiescent TG1 GSCs; primary screen, 50 μM, 24 h): yes

Molecule: CC[C@H](C)C(=O)O[C@H]1C[C@@H](C)C=C2C=C[C@H](C)[C@H](CC[C@@H]3C[C@@H](O)CC(=O)O3)[C@H]21 [Lovastatin]
- Activity on quiescent TG1 CSCs (hit compounds increasing ATP levels) (quiescent TG1 GSCs; primary screen, 50 μM, 24 h): yes

Molecule: CN1CCCC(CC2c3ccccc3Sc3ccccc32)C1 (centres unmarked) [Metixene hydrochloride]
- Activity on proliferating TG1 GSCs (hit compounds reducing ATP levels) (proliferating TG1 GSCs): yes

Molecule: CC[C@@]1([C@H]2O[C@H]([C@H]3O[C@@](O)(CO)[C@H](C)C[C@@H]3C)C[C@H]2C)CC[C@H]([C@@]2(C)CC[C@]3(C[C@H](O)[C@@H](C)[C@@H]([C@H](C)[C@H](OC)[C@@H](C)C(=O)[O-])O3)O2)O1.[Na+] [Monensin sodium salt]
- Activity on quiescent TG1 GSCs (hit compounds reducing ATP levels) (quiescent TG1 GSCs; primary screen, 50 μM, 24 h): yes

Molecule: O=C(Nc1ccc([N+](=O)[O-])cc1Cl)c1cc(Cl)ccc1O [Niclosamide]
- Activity on quiescent TG1 GSCs (hit compounds reducing ATP levels) (quiescent TG1 GSCs; primary screen, 50 μM, 24 h): yes

Molecule: CNCCC=C1c2ccccc2C=Cc2ccccc21 [Norcyclobenzaprine]
- Activity on proliferating TG1 GSCs (hit compounds reducing ATP levels) (proliferating TG1 GSCs): yes

Molecule: C[C@@H]1[C@H](O)[C@@H](C)/C=C/C=C/CC/C=C/C=C/C=C/C=C/C(O[C@H]2O[C@H](C)[C@@H](O)[C@H](N)[C@@H]2O)CC2O[C@](O)(CC(O)C(O)CCC(O)CC(O)CC(O)CC(=O)O[C@H]1C)CC(O)C2C(=O)O (some centres unmarked) [Nystatine]
- Activity on quiescent TG1 GSCs (hit compounds reducing ATP levels) (quiescent TG1 GSCs): yes

Molecule: OCCN1CCN(CCCN2c3ccccc3Sc3ccc(Cl)cc32)CC1 [Perphenazine]
- Activity on proliferating TG1 GSCs (hit compounds reducing ATP levels) (proliferating TG1 GSCs): yes

Molecule: CC(COc1ccccc1)N(CCCl)Cc1ccccc1 (centres unmarked) [Phenoxybenzamine hydrochloride]
- Activity on proliferating TG1 CSCs (hit compounds increasing ATP levels) (proliferating TG1 GSCs): yes

Molecule: CCN1CCN(C(=O)N[C@@H](C(=O)N[C@@H]2C(=O)N3[C@@H]2SC(C)(C)[C@@H]3C(=O)O)c2ccccc2)C(=O)C1=O [Piperacillin sodium salt]
- Activity on proliferating TG1 GSCs (hit compounds reducing ATP levels) (proliferating TG1 GSCs): yes

Molecule: COc1cc(/C=C/C(=O)N2CCC=CC2=O)cc(OC)c1OC [Piperlongumine]
- Activity on proliferating TG1 GSCs (hit compounds reducing ATP levels) (proliferating TG1 GSCs): yes

Molecule: CCC1(c2ccccc2)C(=O)NCNC1=O [Primidone]
- Activity on proliferating TG1 CSCs (hit compounds increasing ATP levels) (proliferating TG1 GSCs): yes

Molecule: CC(C)(Sc1cc(C(C)(C)C)c(O)c(C(C)(C)C)c1)Sc1cc(C(C)(C)C)c(O)c(C(C)(C)C)c1 [Probucol]
- Activity on proliferating TG1 CSCs (hit compounds increasing ATP levels) (proliferating TG1 GSCs): yes

Molecule: C[C@@H]1O[C@@H](O[C@@H]2C=C3CC[C@@H]4[C@H](CC[C@]5(C)[C@@H](c6ccc(=O)oc6)CC[C@]45O)[C@@]3(C)CC2)[C@H](O)[C@H](O)[C@H]1O [Proscillaridin A]
- Activity on quiescent TG1 GSCs (hit compounds reducing ATP levels) (quiescent TG1 GSCs; primary screen, 50 μM, 24 h): yes

Molecule: CNCCCC1c2ccccc2C=Cc2ccccc21 [Protriptyline hydrochloride]
- Activity on proliferating TG1 GSCs (hit compounds reducing ATP levels) (proliferating TG1 GSCs): yes

Molecule: Cc1cc(/C=C/c2ccc3cc(N(C)C)ccc3[n+]2C)c(C)n1-c1ccccc1.Cc1cc(/C=C/c2ccc3cc(N(C)C)ccc3[n+]2C)c(C)n1-c1ccccc1.O=C([O-])c1cc2ccccc2c(Cc2c(O)c(C(=O)[O-])cc3ccccc23)c1O [Pyvinium pamoate]
- Activity on quiescent TG1 GSCs (hit compounds reducing ATP levels) (quiescent TG1 GSCs; primary screen, 50 μM, 24 h): yes

Molecule: COC(=O)[C@H]1[C@H]2C[C@@H]3c4[nH]c5cc(OC)ccc5c4CCN3C[C@H]2C[C@@H](OC(=O)/C=C/c2cc(OC)c(OC)c(OC)c2)[C@@H]1OC [Rescinnamin]
- Activity on quiescent TG1 GSCs (hit compounds reducing ATP levels) (quiescent TG1 GSCs; primary screen, 50 μM, 24 h): yes

Molecule: CO[C@H]1/C=C/O[C@@]2(C)Oc3c(C)c(O)c4c(O)c(c(/C=N/N5CCN(C)CC5)c(O)c4c3C2=O)NC(=O)/C(C)=C\C=C\[C@H](C)[C@H](O)[C@@H](C)[C@@H](O)[C@@H](C)[C@H](OC(C)=O)[C@@H]1C [Rifampicin]
- Activity on quiescent TG1 CSCs (hit compounds increasing ATP levels) (quiescent TG1 GSCs; primary screen, 50 μM, 24 h): yes

Molecule: Br.C[N+]1([O-])[C@@H]2CC(OC(=O)[C@H](CO)c3ccccc3)C[C@H]1[C@@H]1O[C@@H]12 (some centres unmarked) [Scopolamin-N-oxide hydrobromide]
- Activity on quiescent TG1 CSCs (hit compounds increasing ATP levels) (quiescent TG1 GSCs; primary screen, 50 μM, 24 h): yes

Molecule: CCC(C)(C)C(=O)O[C@H]1C[C@@H](C)C=C2C=C[C@H](C)[C@H](CC[C@@H]3C[C@@H](O)CC(=O)O3)[C@H]21 [Simvastatin]
- Activity on quiescent TG1 GSCs (hit compounds reducing ATP levels) (quiescent TG1 GSCs; primary screen, 50 μM, 24 h): yes

Molecule: C[C@]12CC[C@H]3[C@@H](CC[C@]4(O)C[C@@H](O)CC[C@]34C=O)[C@@]1(O)CC[C@@H]2C1=CC(=O)OC1 [Strophanthidin]
- Activity on quiescent TG1 GSCs (hit compounds reducing ATP levels) (quiescent TG1 GSCs; primary screen, 50 μM, 24 h): yes

Molecule: C[C@@H]1O[C@@H](O[C@H]2C[C@@H](O)[C@]3(CO)[C@H]4[C@H](O)C[C@]5(C)[C@@H](C6=CC(=O)OC6)CC[C@]5(O)[C@@H]4CC[C@]3(O)C2)[C@H](O)[C@H](O)[C@H]1O.O.O.O.O.O.O.O.O [Strophantine octahydrate]
- Activity on quiescent TG1 GSCs (hit compounds reducing ATP levels) (quiescent TG1 GSCs; primary screen, 50 μM, 24 h): yes

Molecule: Cc1c(Cl)cccc1Nc1ccccc1C(=O)O [Tolfenamic acid]
- Activity on quiescent TG1 GSCs (hit compounds reducing ATP levels) (quiescent TG1 GSCs; primary screen, 50 μM, 24 h): yes

Molecule: NC[C@H]1CC[C@H](C(=O)O)CC1 [Tranexamic acid]
- Activity on quiescent TG1 CSCs (hit compounds increasing ATP levels) (quiescent TG1 GSCs; primary screen, 50 μM, 24 h): yes

Molecule: CN1C(=O)OC(C)(C)C1=O [Trimethadione]
- Activity on quiescent TG1 CSCs (hit compounds increasing ATP levels) (quiescent TG1 GSCs; primary screen, 50 μM, 24 h): yes

Molecule: (S)-(-)-Atenolol
- Activity on quiescent TG1 CSCs (hit compounds increasing ATP levels) (quiescent TG1 GSCs; primary screen, 50 μM, 24 h): yes

Molecule: Meclocycline sulfosalicylate
- Activity on quiescent TG1 GSCs (hit compounds reducing ATP levels) (quiescent TG1 GSCs; primary screen, 50 μM, 24 h): yes
